Source: patent publication US12090225B2 (Avalyn Pharma Inc., priority 2018, dated 2024)

Experiments:
[1] = system: bleomycin pulmonary fibrosis; test: Therapeutic bleomycin pulmonary fibrosis model: Ashcroft fibrosis score, hydroxyproline; type: in vivo, Sprague Dawley rats; conditions: Oral Gavage (PO) 60 mg/kg BID; bleomycin rats
Protocol: Briefly, acclimated Sprague Dawley male rats (c.a. 253 grams at first dosing) were administered bleomycin on days 1, 2, 3 and 6 by the oropharyngeal (OP) route. On the eighth day, treatment was initiated with either saline or nintedanib. […] Ten animals were enrolled into each dosing group. […] All animals were euthanized on day 28d. Body weights were collected throughout the study, with lung weights at termination (Table 55). Left lungs were extracted and measured for hydroxyproline content, while […] were subjected to histology for Ashcroft fibrosis score determination (Table 56).

[2] = Therapeutic bleomycin model: body weight gain, lung weight-to-body weight ratio, tolerability; conditions: Oral Gavage (PO), dose group printed 0 mg/kg, BID; bleomycin rats
[3] = Compatibility of nintedanib esylate with container system and membrane filter (nylon filter, LDPE vials); type: physicochemical
Excerpt: Compatibility of Nintedanib Esylate with Container System and Type of Membrane Filter: The objective of this study is to determine the suitability of low density polyethylene (LDPE) vials and nylon filters for use with nintedanib esylate standalone and nintedanib esylate plus pirfenidone combination formulations. The test samples were stored at ambient room condition and periodically check for precipitation or crystallization.

[4] = Tier 1: nintedanib esylate-excipient compatibility study; type: physicochemical
Protocol: Test solution 101-01-16-00 was filtered through a 0.22 micron PVDF filter, all other formulations were not filtered. The test solutions were filled into 10 mL clear Type I glass vials and sealed with Teflon-lined rubber stopper and aluminum crimp cap.

[5] = Inhaled pharmacokinetics of nintedanib salt forms (intratracheal); type: in vivo, C57BL/6 mice; conditions: for half-life: C57BL/6, mouse, 1 mg/kg, read-out: Elimination half-life (alpha-phase); for Cmax: read-out: Cmax
[6] = Tier 3: compatibility in 30 mM NaCl with a second excipient; type: physicochemical
Protocol: Compatibility of nintedanib esylate and nintedanib esylate plus pirfenidone control with sodium chloride and a second excipient was assessed. […] The test solutions were filled into 10 mL clear Type I glass vials with Teflon lined rubber stopper and aluminum crimp caps and stored at ambient room condition away from light.

[7] = Therapeutic bleomycin model: dose levels and lung pharmacokinetic comparison; type: in vivo, Sprague Dawley rats; conditions: Oral Gavage (PO) 60.0 mg/kg; rat
[8] = Inhaled pharmacokinetics of fixed combination nintedanib esylate and pirfenidone; type: in vivo, C57BL/6 mice; conditions: 10.0 mg/kg each IT; for half-life: read-out: Elimination half-life (alpha-phase)
Protocol: Plasma and lung tissue samples were taken 2, 5, 10, 20, 40 min and 1, 2, and 4 hours post dose. Nintedanib was extracted and quantitated as μg/mL plasma and μg/gram lung tissue.

[9] = Plasma and lung pharmacokinetics of nintedanib esylate, oral vs intratracheal aerosol; type: in vivo, C57BL/6 mice; conditions: for adverse effect (dyspnea): mice; for Cmax / half-life / AUC(0-t): female, C57BL/6, mouse; for half-life: read-out: Elimination half-life (alpha-phase)
[10] = Formulation screening: compatibility of nintedanib esylate with pirfenidone and osmolality adjusting agents (visual appearance); type: physicochemical
Protocol: Formulation screening of stand alone nintedanib esylate and in combination with pirfenidone were conducted. Commonly used ionic osmolality adjusting agents include sodium chloride, sodium citrate, magnesium chloride were evaluated as excipients. In addition, mannitol and propylene glycol, which are […] osmolality adjusting agents, were also tested.
The resulting solutions, if not immediately precipitated, were filled into clear Type I glass vials and sealed with a Teflon lined rubber stopper and aluminum crimp cap. The test solutions were stored at ambient room condition in the dark. Visual appearance was periodically assessed within 24 hours and periodically thereafter. Table 31 summarizes the initial formulation screening results.

[11] = 1 mg/kg (base equivalent) IT, mice
[12] = female, C57BL/6, mouse, inhaled or intranasal, Lung (whole lung homogenate)
[13] = female, C57BL/6, mouse, inhaled or intranasal, Plasma
[14] = 100.0 mg/kg PO, Lung (whole lung homogenate)
[15] = inhaled or intranasal, 2.5 mg/kg IT, Lung (whole lung homogenate)
[16] = inhaled or intranasal, 2.5 mg/kg IT, Plasma
[17] = inhaled or intranasal, 10.0 mg/kg IT, Lung (whole lung homogenate)
[18] = inhaled or intranasal, 10.0 mg/kg IT, Plasma

Which results are given for `COC(=O)c1ccc2c(c1)NC(=O)/C2=C(\Nc1ccc(N(C)C(=O)CN2CCN(C)CC2)cc1)c1ccccc1` [Nintedanib esylate]?
Fibrosis Score (SD) (Ashcroft) [1]: 2.3 (0.45); Fibrosis Score, Delta to Vehicle (%) [1]: 11.5%; Body Weight Gain, Delta to Sham (%) [2]: −46.9%; compatibility with NaCl ([3]; NaCl at 30 mM, in absence of pirfenidone, irrespective of container type and filtration material): incompatible; suitability of clear borosilicate glass vial ([3]; even at 0.5 mg/mL nintedanib esylate): not suitable; suitability of LDPE vial ([3]; nintedanib esylate and nintedanib esylate in 1.5% propylene glycol solutions): suitable; compatibility with clear borosilicate glass vial [4]: not compatible; compatibility with PVDF membrane filter ([4]; 0.22 μm): not compatible; Lung AUC [5, 11]: about 20 mg·hr/kg; lung half-life [5, 11]: about 3 minutes; half-life ([5]; female, lung (whole lung homogenate), inhaled or intranasal, lung (whole lung homogenate), 1.0 mg/kg IT, C57BL/6 mice): 2.9 min; half-life ([5]; female, plasma, inhaled or intranasal, plasma, 1.0 mg/kg IT, C57BL/6 mice): 2 min; Cmax ([5]; female, mouse, inhaled or intranasal, lung (whole lung homogenate), 1.0 mg/kg IT, C57BL/6 mice): 34500 ng/g; Cmax ([5]; female, mouse, inhaled or intranasal, plasma, 1.0 mg/kg IT (base equivalent), C57BL/6 mice): 400 ng/mL; AUC(0-t) ([5]; female, mouse, inhaled or intranasal, plasma, 1.0 mg/kg IT, C57BL/6 mice): 200 ng·h/mL; AUC 0-last ([5]; lung (whole lung homogenate), 1.0 mg/kg IT, C57BL/6 mice): 21.7 mg·h/kg; stability by itself in 30 mM NaCl [6]: not stable; Lung AUC [7]: 29.3 mg·h/kg; Lung Cmax [7]: 4.4 µg/g; AUC 0-last ([8]; Lung (whole lung homogenate)): 68.4 mg·h/kg; Cmax [8, 12]: 171000 ng/g; half-life [8, 12]: 1.8 min; AUC(0-t) [8, 13]: 1000 ng·h/mL; Cmax [8, 13]: 2800 ng/mL; half-life [8, 13]: 7.7 min; adverse effect (dyspnea) ([9]; 2.5 mg/kg IT): not observed; AUC 0-last ([9]; 2.5 mg/kg IT, Lung (whole lung homogenate)): 67.8 mg·h/kg; adverse effect (dyspnea) ([9]; 10 mg/kg IT): caused dyspnea; AUC 0-last ([9]; 10.0 mg/kg IT, Lung (whole lung homogenate)): 167.8 mg·h/kg; AUC 0-last [9, 14]: 24.1 mg·h/kg; Cmax [9, 15]: 57500 ng/g; half-life [9, 15]: 3.8 min; AUC(0-t) [9, 16]: 200 ng·h/mL; Cmax [9, 16]: 700 ng/mL; half-life [9, 16]: 2.3 min; Cmax [9, 17]: 250000 ng/g; half-life [9, 17]: 5.6 min; AUC(0-t) [9, 18]: 600 ng·h/mL; Cmax [9, 18]: 2700 ng/mL; half-life [9, 18]: 2.3 min; Cmax [9, 14]: 12100 ng/g; AUC(0-t) ([9]; 100.0 mg/kg PO, Plasma): 1800 ng·h/mL; Cmax ([9]; 100.0 mg/kg PO, Plasma): 600 ng/mL; half-life ([9]; 100.0 mg/kg PO, Plasma): 112 min; compatibility with sodium citrate ([10]; aqueous solution): incompatible; compatibility with sodium chloride ([10]; sodium chloride at 30 mM): may be compatible; compatibility with sodium chloride ([10]; sodium chloride at 60 mM or higher): incompatible
